Holding throughout (assay): DTP human tumour cell line panel, 48 h
Test [1] concerns COLO 205 colon.
For test [2], the system named is EKVX NSCLC.
The test system of test [3] is SF-539 CNS.
Test [4] relates to SK-MEL-5 melanoma.
Test [5] deals with SN12C renal.
For test [6], the system named is SNB-75 CNS.
The subject of test [7] is SW-620 colon.
Test [8] has as its system TK-10 renal.
The test system of test [9] is U251 CNS.
The test system of test [10] is UO-31 renal.

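Compound exposure: 48 hours, 5 concentrations, 96-well plates. The concentration for 50% growth inhibition is given as GI50. TGI marks complete inhibition of growth.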

As to `O=C(O)C1CC2(C1)CC(C(=O)O)C2` (stereo not given), the TGI in test [1], in test [2], in [3], in test [4], in test [5] and in test [6] was more than 100 µM each time. Moreover, the TGI in test [7], in test [8], in test [9] and in test [10] was more than 100 µM in each case.
In the case of `O=C(O)c1cn(C2CC2)c2cc(N3CCN(C(=O)Nc4nc(-c5ccccc5)cs4)CC3)c(F)cc2c1=O`, the GI50 in test [1] was 2.84 µM; in [2], 3.17 µM; in [3] it was 0.634 µM; in test [4], 0.824 µM; in test [5], 0.774 µM; in test [6] it was 1.22 µM. Also, the GI50 is 3.2 µM in test [7], 3.93 µM in [8], 0.474 µM in test [9] and 0.876 µM in [10]. For the same compound, the TGI is 9.63 µM in test [1]; 85.2 µM in [2]; more than 100 µM in test [3]; 2.87 µM in test [4]; more than 100 µM in test [5]; 19.4 µM in [6]. For the same compound, the TGI in test [7] is more than 100 µM; in test [8] it was 35.1 µM; in test [9], 14.1 µM; in [10] it was more than 100 µM.
With `COc1ccc(/C=c2\sc3n(c2=O)C2C(NN=3)N(C)C(=O)N2C)cc1` (stereo not given), the GI50 in test [1] was 1.09 µM; in test [2], 1.72 µM; in test [3], 0.78 µM; in [4], 0.66 µM; in [5], 1.63 µM; in test [6], 1.17 µM. The GI50 is 0.747 µM in test [7], more than 100 µM in [8], 1.44 µM in test [9] and 1.86 µM in test [10]. The TGI was more than 100 µM in test [1]; more than 100 µM in test [2]; 6.04 µM in [3]; more than 100 µM in test [4]; more than 100 µM in test [5]; 6.77 µM in [6]. Also, the TGI in [7], in [8], in test [9] and in test [10] was more than 100 µM throughout.
`COC(=O)CCC1CCc2c(OC)ccc(OC)c2C1=O` (stereo not given): the TGI in [1], in [2], in test [3], in test [4], in test [5] and in test [6] was more than 100 µM throughout. For the same compound, the TGI in test [7], in test [8], in test [9] and in test [10] was more than 100 µM each time.
On to `Cc1ccc(C(NC(=O)c2ccccc2)c2ccc3cccnc3c2O)cc1` (stereo not given), for which the GI50 is 0.44 µM in test [1]; 0.357 µM in test [2]; 0.318 µM in test [3]; 0.201 µM in test [4]; 0.451 µM in test [5]; 0.927 µM in test [6]. The GI50 in test [7] was 0.431 µM; in test [8] it was 0.413 µM; in [9], 0.249 µM; in test [10], 0.198 µM. The TGI in [1] was 18.5 µM; in [2] it was 53.5 µM; in [3], 1.91 µM; in [4] it was 0.439 µM; in [5], 48.7 µM; in [6] it was 60 µM. Also, the TGI in test [7] is more than 43.5 µM; in test [8] it was 24.1 µM; in test [9] it was 18.4 µM; in test [10], 1.19 µM.
As for `O=[N+]([O-])c1ccc(Oc2nc(Nc3ccc(O[C@H]4CO[C@H]5[C@@H]4OC[C@@H]5O)c(Cl)c3)ncc2F)c(Cl)c1`, the GI50 in test [1] is 1.42 µM; in [2], 2.22 µM; in [3] it was 1.55 µM; in [4] it was 1.29 µM; in test [5] it was 1.34 µM; in test [6] it was 0.443 µM. Besides, the GI50 in test [7] was 1.38 µM; in [8], 1.08 µM; in test [9], 1.66 µM; in [10], 1.6 µM. Also, the TGI amounted to 3.78 µM in test [1]; 9.43 µM in [2]; 3.86 µM in [3]; 2.59 µM in test [4]; 6.78 µM in [5]; 3.28 µM in test [6]. Further, the total growth inhibition concentration (TGI) was 12.6 µM in test [7], 4.07 µM in [8], 6.51 µM in test [9] and 4.81 µM in [10].
As to `CCOc1ccc2c(c1)[n+]([O-])c(-c1ccc(Br)cc1)c(N)[n+]2[O-]`, the TGI is 52.4 µM in [1]; more than 100 µM in test [2]; more than 100 µM in test [3]; 40.9 µM in [4]; more than 100 µM in test [5]; more than 100 µM in test [6]. Besides, the TGI in test [7], in test [8], in [9] and in test [10] was more than 100 µM in each case.
For `Cc1cc2cc3ccc(N(C)C)cc3nc2cc1N`, the GI50 in test [1] is 0.389 µM; in test [2] it was 0.273 µM; in test [3], 0.658 µM; in test [4], 0.767 µM; in [5] it was 0.411 µM; in test [6], 1.04 µM. Moreover, the GI50 in test [7] is 0.334 µM; in test [8] it was 1.41 µM; in test [9] it was 0.312 µM; in test [10] it was 0.642 µM. In addition, the TGI in test [1] amounted to 2.01 µM; in [2], 3.11 µM; in [3] it was 2.49 µM; in test [4], 2.25 µM; in test [5], 4.54 µM; in test [6] it was 2.3 µM. The TGI amounted to 1.92 µM in test [7], 9.44 µM in test [8], 1.61 µM in test [9] and 5.01 µM in test [10].
As for `Cn1nc(-c2ccc(Cl)cc2)nc2c(=O)n(C)c(=O)nc1-2`, the GI50 in test [1] is 0.491 µM; in test [2] it was 1.11 µM; in [3], 1.08 µM; in test [4] it was 0.321 µM; in test [5], 0.706 µM; in test [6] it was 2.38 µM. The GI50 in test [7] is 1.4 µM; in test [8] it was 6.09 µM; in [9], 0.789 µM; in [10] it was 1.53 µM. Besides, the TGI came out at 1.93 µM in test [1]; 4.21 µM in [2]; 2.29 µM in test [3]; 0.878 µM in test [4]; 1.45 µM in [5]; 4.68 µM in [6]. Also, the TGI in [7] stood at 6.46 µM; in test [8], 24.8 µM; in [9] it was 2.62 µM; in test [10], 6.56 µM.
As to `N[C@@H]1C(=O)N2C(C(=O)OC(c3ccccc3)c3ccccc3)=C(CCl)CS[C@H]12`, the GI50 in test [1] is 40.3 µM; in test [2], 60.1 µM; in [3], 23.5 µM; in [4], 40.8 µM; in test [5], 41 µM; in test [6], 47.7 µM. Besides, the GI50 in [7] is 36.6 µM; in [8], 50.1 µM; in [9], 29.2 µM; in [10], 47.3 µM. Also, the TGI was more than 100 µM in test [1]; more than 100 µM in test [2]; 50.2 µM in test [3]; more than 100 µM in [4]; more than 100 µM in [5]; more than 100 µM in [6]. Moreover, the TGI in test [7] was more than 100 µM; in test [8] it was more than 100 µM; in test [9], more than 78.9 µM; in test [10], more than 100 µM.
Consider `C[N+](C)(C)CC1CCC/C1=N/O` (stereo not given), for which the TGI in [1] was 38.7 µM; in [2], more than 100 µM; in test [3], more than 100 µM; in test [4], more than 100 µM; in test [5], more than 100 µM; in test [6] it was more than 100 µM. Moreover, the TGI in test [7] was 19.5 µM; in test [8], more than 100 µM; in [9] it was more than 100 µM; in [10], more than 100 µM.
For `Clc1ccc(-c2nnc(-c3cccc4ccccc34)o2)cc1Cl`, the TGI in test [1], in test [2], in [3], in test [4], in test [5] and in test [6] was more than 100 µM each time. Besides, the concentration for total growth inhibition (TGI) in test [7], in test [8], in test [9] and in test [10] was more than 100 µM in each case.
Take `O=C(NCCO)c1ccc([N+](=O)[O-])cc1`: the TGI in test [1], in test [2], in [3], in test [4], in test [5] and in [6] was more than 100 µM in each case. Moreover, the TGI in [7], in test [8], in [9] and in test [10] was more than 100 µM throughout.
`Cc1nnc2c3nnc(C)n3c3ccccc3n12`: the TGI in test [1], in test [2], in test [3], in [4], in test [5] and in test [6] was more than 100 µM each time. Also, the TGI in test [7], in test [8], in test [9] and in test [10] was more than 100 µM throughout.

These data come from PubChem BioAssay (NCI).
